From patent US20090062388A1, “Use of acetyl L-carnitine for the preparation of a medication for the preventive therapy for pain” (Sigma-Tau Industrie Farmaceutiche Riunite S.p.A., priority 2001, published 2009)
Read-outs that look alike come from different tables or passages of the source.

What was measured:
Male Swiss Webster mice = assay: Hot-plate test (thermal stimulus), licking latency; type: in vivo
Procedure: The first experiment was the hot-plate test.
Male Swiss Webster mice weighing between 22 and 30 g were used.
The test was carried out according to O'Callaghan and Holtzman in J. Pharmacol. Exp. Ther. 197: 533-537, 1976.
According to this test, a stainless steel container is to be placed in a bain-marie at a temperature of 52.5° C.
The mouse was removed from the hot plate immediately upon the first sign of painful stimulus. The maximum latency time registered on the hot plate was 45 seconds.
The values of analgesia were determined at 15 minute-intervals.

mice = type: in vivo; conditions: Acetyl L-carnitine 100 mg/kg BID SC 7 days
Procedure: The analgesia induced by the acetyl L-carnitine (100 mg/kg BID, SC for 7 days) was determined in presence of some antagonists of some neurotransmission systems deeply involved in the regulation of pain threshold, and in particular the naloxone (opioid antagonist), the CGP-35348 (GABAB antagonist) and the alpha-methyl-p-tyrosine (inhibitor of the synthesis of cathecolamines).
In agreement with the standard procedures known by the person skilled in the art, the doses used for any antagonist were the minimum required to prevent the analgesia induced by morphine (7 mg/kg SC) (1, 100 e 200 mg/kg IP), baclofen (4 mg/kg SC) and amphetamine (1 mg/kg SC) (non-reported data) respectively.

SMILES: CC(=O)O[C@H](CC(=O)[O-])C[N+](C)(C)C [Acetyl L-carnitine, acetyl L-carnitine]
- Hot plate Licking latency (Male Swiss Webster mice; 3 mg/ml in drinking water, after 7 days treatment): 17.8 ± 2.3 s
- Hot plate Licking latency (Male Swiss Webster mice; 3 mg/ml in drinking water, after 14 days treatment): 18.8 ± 2.5 s
- Hot plate Licking latency (Male Swiss Webster mice; 3 mg/ml in drinking water, before treatment): 13.8 ± 0.8 s
- analgesic effect in hot-plate test (Male Swiss Webster mice; 30 mg/kg SC, acute and 30 mg/kg BID SC for 7 days): had no analgesic effect
- antinociceptive effect in hot-plate test (Male Swiss Webster mice; 100 mg/kg BID SC for 7 days): statistically significant antinociceptive effect
- antinociceptive effect in hot-plate test (Male Swiss Webster mice; 100 mg/kg BID administered for 14 days): the test failed to be statistically significant
- pain threshold in hot-plate test (Male Swiss Webster mice; 1-8 hours from one single administration of 100 mg/kg SC): did not affect the pain threshold
- Hot plate Licking latency (Male Swiss Webster mice; 7-day sub-chronic treatment SC 30 mg/kg BID, 15 min after treatment): 16.3 ± 2.1 s
- Hot plate Licking latency (Male Swiss Webster mice; 7-day sub-chronic treatment SC 30 mg/kg BID, 30 min after treatment): 17.3 ± 1.9 s
- Hot plate Licking latency (Male Swiss Webster mice; 7-day sub-chronic treatment SC 30 mg/kg BID, 45 min after treatment): 15.2 ± 1.5 s
- Hot plate Licking latency (Male Swiss Webster mice; 7-day sub-chronic treatment SC 30 mg/kg BID, before treatment): 15.8 ± 1.3 s
- Hot plate Licking latency (Male Swiss Webster mice; 7-day sub-chronic treatment SC 100 mg/kg BID, 15 min after treatment): 22.1 ± 1.8^ sec
- Hot plate Licking latency (Male Swiss Webster mice; 7-day sub-chronic treatment SC 100 mg/kg BID, 30 min after treatment): 22.5 ± 1.9^ sec
- Hot plate Licking latency (Male Swiss Webster mice; 7-day sub-chronic treatment SC 100 mg/kg BID, 45 min after treatment): 22.2 ± 1.7^ sec
- Hot plate Licking latency (Male Swiss Webster mice; 7-day sub-chronic treatment SC 100 mg/kg BID, before treatment): 21.8 ± 1.1^ sec
- Hot plate Licking latency (Male Swiss Webster mice; 14-day sub-chronic treatment SC 100 mg/kg BID, 15 min after treatment): 22.1 ± 2.7 s
- Hot plate Licking latency (Male Swiss Webster mice; 14-day sub-chronic treatment SC 100 mg/kg BID, 30 min after treatment): 22.5 ± 2.1 s
- Hot plate Licking latency (Male Swiss Webster mice; 14-day sub-chronic treatment SC 100 mg/kg BID, 45 min after treatment): 23.4 ± 2.9 s
- Hot plate Licking latency (Male Swiss Webster mice; 14-day sub-chronic treatment SC 100 mg/kg BID, before treatment): 22.4 ± 1.4 s
- Hot plate Licking latency (Male Swiss Webster mice; 7 days after the end of the 14-day-treatment 100 mg/kg BID, 15 min after treatment): 21.1 ± 1.9^ sec
- Hot plate Licking latency (Male Swiss Webster mice; 7 days after the end of the 14-day-treatment 100 mg/kg BID, 30 min after treatment): 18.5 ± 1.8 s
- Hot plate Licking latency (Male Swiss Webster mice; 7 days after the end of the 14-day-treatment 100 mg/kg BID, 45 min after treatment): 19.0 ± 2.3 s
- Hot plate Licking latency (Male Swiss Webster mice; 7 days after the end of the 14-day-treatment 100 mg/kg BID, before treatment): 19.2 ± 1.6^ sec
- antinociceptive action in hot-plate test (Male Swiss Webster mice; 7 days after the last 14 day-series of injections, 100 mg/kg BID SC): persisted even 7 days after the last 14 day-series of injections
- Hot plate Licking latency (Male Swiss Webster mice; Acute SC treatment 100 mg/kg, 15 min after treatment): 17.3 ± 1.7 s
- Hot plate Licking latency (Male Swiss Webster mice; Acute SC treatment 100 mg/kg, 30 min after treatment): 16.8 ± 1.2 s
- Hot plate Licking latency (Male Swiss Webster mice; Acute SC treatment 100 mg/kg, 45 min after treatment): 15.2 ± 1.7 s
- Hot plate Licking latency (Male Swiss Webster mice; Acute SC treatment 100 mg/kg, before treatment): 13.9 ± 0.7 s
- Hot plate Licking latency (Male Swiss Webster mice; SC acute treatment 30 mg/kg, 15 min after treatment): 15.8 ± 1.8 s
- Hot plate Licking latency (Male Swiss Webster mice; SC acute treatment 30 mg/kg, 30 min after treatment): 16.5 ± 2.0 s
- Hot plate Licking latency (Male Swiss Webster mice; SC acute treatment 30 mg/kg, 45 min after treatment): 15.0 ± 2.1 s
- Hot plate Licking latency (Male Swiss Webster mice; SC acute treatment 30 mg/kg, before treatment): 14.2 ± 0.9 s
- protective effect in hot-plate test (Male Swiss Webster mice; acute SC administration 100 mg/kg): did not exert any protective effect
- Hot plate Licking latency (Male Swiss Webster mice; single SC treatment 100 mg/kg, 1 h after treatment): 15.8 ± 2.2 s
- Hot plate Licking latency (Male Swiss Webster mice; single SC treatment 100 mg/kg, 2 h after treatment): 14.7 ± 1.5 s
- Hot plate Licking latency (Male Swiss Webster mice; single SC treatment 100 mg/kg, 3 h after treatment): 15.6 ± 1.9 s
- Hot plate Licking latency (Male Swiss Webster mice; single SC treatment 100 mg/kg, 4 h after treatment): 14.1 ± 2.0 s
- Hot plate Licking latency (Male Swiss Webster mice; single SC treatment 100 mg/kg, 6 h after treatment): 15.2 ± 1.9 s
- Hot plate Licking latency (Male Swiss Webster mice; single SC treatment 100 mg/kg, 8 h after treatment): 14.9 ± 1.6 s
- Hot plate Licking latency (Male Swiss Webster mice; single SC treatment 100 mg/kg, before treatment): 14.5 ± 0.9 s
- pain threshold in hot-plate test (Male Swiss Webster mice; solution 3 mg/ml in bottle for 7 and 14 days): no increase in the pain threshold was observed
- Hot plate Licking latency (mice; pre-treat. Alpha-M-p-T 200 mg/kg, after treatment 15 min): 22.5 ± 2.0 s
- Hot plate Licking latency (mice; pre-treat. Alpha-M-p-T 200 mg/kg, after treatment 30 min): 21.5 ± 1.7 s
- Hot plate Licking latency (mice; pre-treat. Alpha-M-p-T 200 mg/kg, after treatment 45 min): 21.6 ± 1.5^ sec
- Hot plate Licking latency (mice; pre-treat. Alpha-M-p-T 200 mg/kg, before treatment): 22.0 ± 1.3 s
- Hot plate Licking latency (mice; pre-treat. Atropine 5 mg/kg, after treatment 15 min): 11.4 ± 1.7° sec
- Hot plate Licking latency (mice; pre-treat. Atropine 5 mg/kg, after treatment 30 min): 12.6 ± 1.9° sec
